ChEMBL document CHEMBL1201862, “PubChem BioAssay data set” (2004)
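Five compound concentrations were applied to cells in 96-well plates for 48 hours; endpoints were derived by simple linear interpolation of the resulting dose-response curve. GI50 marks 50% less growth.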 Active and inactive are the calls of the source. No stated cut-off is given here; in the data, active = GI50 up to about 1.1 µM and inactive = higher.

What was measured:
Test in all cases: inhibition of tumour cell growth, NCI panel, 48 h
[1] = test system: A498
[2] = test system: HCT-116
[3] = test system: LOX IMVI
[4] = test system: CCRF-CEM
[5] = test system: NCI-H460
[6] = test system: OVCAR-5
[7] = test system: RXF 393
[8] = test system: TK-10
[9] = test system: ACHN
[10] = test system: OVCAR-4
[11] = test system: M14
[12] = test system: NCI-H23
[13] = test system: MOLT-4
[14] = test system: SNB-75
[15] = test system: HL-60
[16] = test system: SF-268
[17] = test system: SF-539
[18] = test system: NCI-H522

SMILES | GI50 [1] | GI50 [2] | GI50 [3] | GI50 [4] | GI50 [5] | GI50 [6] | GI50 [7] | GI50 [8] | GI50 [9] | GI50 [10] | GI50 [11] | GI50 [12] | GI50 [13] | GI50 [14] | GI50 [15] | GI50 [16] | GI50 [17] | GI50 [18]
COc1ccc(/C=N\O[Si](C)(C)C(C)(C)C)cc1O[Si](C)(C)C(C)(C)C | 16.7 µM (inactive) | 15.7 µM (inactive) | 20 µM (inactive) | 21.6 µM (inactive) | 20.6 µM (inactive) | 22.4 µM (inactive) | 14.3 µM (inactive) | 20.4 µM (inactive) | 18 µM (inactive) | 19 µM (inactive) | 20 µM (inactive) | 19.4 µM (inactive) | 17.4 µM (inactive) | 22.3 µM (inactive) | 19.6 µM (inactive) | 21.5 µM (inactive) | 18.5 µM (inactive) | –
CC1OC(=O)N(CCCC=C2SCCCS2)C1=O (stereo unspecified) | > 100 µM (inactive) | > 100 µM (inactive) | > 100 µM (inactive) | > 100 µM (inactive) | > 100 µM (inactive) | > 100 µM (inactive) | > 100 µM (inactive) | > 100 µM (inactive) | > 100 µM (inactive) | > 100 µM (inactive) | > 100 µM (inactive) | > 100 µM (inactive) | > 100 µM (inactive) | > 100 µM (inactive) | – | > 100 µM (inactive) | > 100 µM (inactive) | > 100 µM (inactive)
CC(Oc1ccc(OCC2CCCCC2)cc1)C(=O)NCCO (stereo unspecified) | 48 µM (inactive) | > 100 µM (inactive) | 26.7 µM (inactive) | > 100 µM (inactive) | 52.1 µM (inactive) | – | > 100 µM (inactive) | > 100 µM (inactive) | > 100 µM (inactive) | > 100 µM (inactive) | > 100 µM (inactive) | 15.7 µM (inactive) | > 100 µM (inactive) | > 100 µM (inactive) | > 100 µM (inactive) | > 100 µM (inactive) | > 100 µM (inactive) | 87.1 µM (inactive)
CCN(CC)CCNC(=O)c1cccc2nc3ccccc3nc12 | 11.7 µM (inactive) | 4.16 µM (inactive) | 4.4 µM (inactive) | – | – | 15.8 µM (inactive) | 12.4 µM (inactive) | 27.2 µM (inactive) | 5.06 µM (inactive) | 12.8 µM (inactive) | 18.5 µM (inactive) | 13.7 µM (inactive) | 4.91 µM (inactive) | > 36.8 µM (inactive) | – | 0.318 µM (active) | 8.45 µM (inactive) | 28.5 µM (inactive)
O=C(CCc1n[nH]c(=S)o1)Nc1ccccc1C(F)(F)F | > 100 µM (inactive) | > 10 µM (inactive) | – | > 100 µM (inactive) | > 100 µM (inactive) | > 100 µM (inactive) | – | > 100 µM (inactive) | > 100 µM (inactive) | > 100 µM (inactive) | > 100 µM (inactive) | > 100 µM (inactive) | > 100 µM (inactive) | > 100 µM (inactive) | > 100 µM (inactive) | > 100 µM (inactive) | > 100 µM (inactive) | > 100 µM (inactive)
COc1ccc([C@@H]2CC(=O)N2)cc1 | > 100 µM (inactive) | > 100 µM (inactive) | – | > 100 µM (inactive) | > 100 µM (inactive) | > 100 µM (inactive) | > 100 µM (inactive) | > 100 µM (inactive) | > 100 µM (inactive) | > 100 µM (inactive) | > 100 µM (inactive) | > 100 µM (inactive) | > 100 µM (inactive) | > 100 µM (inactive) | > 100 µM (inactive) | > 100 µM (inactive) | > 100 µM (inactive) | > 100 µM (inactive)
COc1cc(C(=O)Nc2cccc3ccccc23)c(Br)c(OC)c1OC | – | 67.9 µM (inactive) | 80 µM (inactive) | 33.9 µM (inactive) | 64.9 µM (inactive) | 64.4 µM (inactive) | 42.7 µM (inactive) | > 100 µM (inactive) | 81.7 µM (inactive) | 16.5 µM (inactive) | > 100 µM (inactive) | 82 µM (inactive) | 39.7 µM (inactive) | 62.2 µM (inactive) | 24.2 µM (inactive) | 97.1 µM (inactive) | > 100 µM (inactive) | 56.9 µM (inactive)
Cc1ccc(C2=C(c3ccccc3)C(=O)C(c3ccccc3)=C2c2ccc(C)cc2)cc1 | > 100 µM (inactive) | 31.4 µM (inactive) | – | 17.2 µM (inactive) | 36.1 µM (inactive) | > 100 µM (inactive) | 26.4 µM (inactive) | 45.6 µM (inactive) | 32.3 µM (inactive) | – | > 100 µM (inactive) | 31.1 µM (inactive) | 14.5 µM (inactive) | 87.3 µM (inactive) | – | 32.1 µM (inactive) | 18.3 µM (inactive) | 72.9 µM (inactive)
